Measured values from patent US20060121102A1, “Transdermal systems for the delivery of estrogens and progestins” (priority 2004, published 2006).

Test: In vitro skin permeation (flux), modified Franz diffusion cells
Assay type: in vitro ADME, human
Settings: as permeation enhancer, compared with other enhancers such as lauryl lactate
Method: In vitro skin permeation studies were conducted using modified Franz diffusion cells to determine the delivery of estrogens and progestins from various drug polymer matrices. The release liner was peeled off of the drug matrix layer. The drug matrix layer was then gently pressed onto the stratum corneum of heat separated epidermis from human cadaver skin. This skin membrane with the backing and drug matrix affixed thereto was then mounted between the two half-cells and fastened with a clamp. The receiver compartment was filled with 1% hydroxylpropylcyclodextrin in normal saline solution with 0.01% sodium azide. The temperature was maintained at 32° C. Samples were taken at preset intervals and assayed by HPLC. The flux was calculated from the slope of the cumulative amounts of the drug in the receiver compartment versus time.

enhancing the transdermal flux of norelgestromin: particularly effective
SMILES: CC(O)C(=O)O (stereo not shown) [lactic acid]
